{"source": "patent US20100099614A1", "about": "“Antimicrobial Peptides and Methods of Use” (priority 2008, published 2010)", "key": {"[1]": {"assay": "Helical structure by circular dichroism spectroscopy", "type": "physicochemical", "procedure": "The mean residue molar ellipticities of peptides were determined by circular dichroism (CD) spectroscopy, using a Jasco J-810 spectropolarimeter (Easton, Md.) at 5° C. under benign (non-denaturing) conditions (50 mM NaH2PO4/Na2HPO4/100 mM KCl, pH 7.0), hereafter referred to as benign buffer, as well as in the presence of an α-helix inducing solvent, 2,2,2-trifluoroethanol, TFE, (50 mM NaH2PO4/Na2HPO4/[…], pH 7.0 buffer/50% TFE). A 10-fold dilution of an approximately […] stock solution of the peptide analogs was loaded into a 0.1 cm quartz cell and its ellipticity scanned from 195 to 250 nm. The values of molar ellipticities of the peptide analogs at a wavelength of 222 nm were used to estimate the relative α-helicity of the peptides."}, "[2]": {"assay": "Peptide hydrophobicity by RP-HPLC retention", "type": "physicochemical", "settings": "80° C., polar face substitution", "procedure": "Peptide Synthesis and Purification—Syntheses of the peptides were carried out by solid-phase peptide synthesis using t-butyloxycarbonyl chemistry and MBHA (4-methylbenzhydrylamine) resin (0.97 mmol/g), followed by cleavage of the peptide from the resin as described previously (117-119). However, it is understood in the art that there are other suitable instruments and methods for automated or manual peptide synthesis that could be employed to produce the peptides described herein. Peptide purification was performed by reversed-phase high-performance liquid chromatography (RP-HPLC) on a Zorbax 300 SB-C8 column (250×9.4 mm I.D.; 6.5 μm particle size, 300 Å pore size; Agilent Technologies, Little Falls, Del.) with a linear AB gradient (0.1% acetonitrile/min) at a flow rate of 2 mL/min, where eluent A was 0.2% aqueous trifluoroacetic acid (TFA), pH 2, and eluent B was 0.2% TFA in acetonitrile, where the shallow 0.1% acetonitrile/min gradient started 12% below the acetonitrile concentration required to elute the peptide on injection of analytical sample using a gradient of 1% acetonitrile/min (113). The purity of the peptides was verified by analytical RP-HPLC as described below and further characterized by mass spectrometry and amino acid analysis. Crude and purified peptides were analyzed on an Agilent 1100 series liquid chromatograph. Runs were performed on a Zorbax 300 SB-C8 column (150×2.1 mm I.D.; 5 μm particle size, 300 Å pore size) from Agilent Technologies using a linear AB gradient (1% acetonitrile/min) and a flow rate of 0.25 mL/min, where eluent A was 0.2% aqueous TFA, pH 2, and eluent B was 0.2% TFA in acetonitrile.\nAnalytical RP-HPLC of Peptides—Peptides were analyzed on an Agilent 1100 series liquid chromatograph (Little Falls, Del.). Runs were performed on a Zorbax 300 SB-C8 column (150×2.1 mm I.D.; 5 μm particle size, 300 Å pore size) from Agilent Technologies using linear AB gradient (1% acetonitrile/min) and a flow rate of 0.25 ml/min, where solvent A was 0.05% aqueous TFA, pH 2 and solvent B was 0.05% TFA in acetonitrile. Temperature profiling analyses were performed in 3° C. increments, from 5° C. to 80° C."}, "[3]": {"system": "Gram-positive bacteria", "settings": "gram-positive bacteria"}, "[4]": {"assay": "CD temperature denaturation study", "type": "physicochemical", "settings": "50% TFE", "procedure": "CD Temperature Denaturation Study of Peptide V681—The native peptide V681 was dissolved in 0.05% aqueous TFA containing 50% TFE, pH 2, loaded into a 0.02 cm fused silica cell and peptide ellipticity scanned from 190 to 250 nm at temperatures of 5, 15, 25, 35, 45, 55, 65 and 80° C. The spectra at different temperatures were used to mimic the alteration of peptide conformation during temperature profiling analysis in RP-HPLC. The ratio of the molar ellipticity at a particular temperature (t) relative to that at 5° C. ([θ]t−[θ]u)/([θ]5−[θ]u) was calculated and plotted against temperature in order to obtain the thermal melting profiles, where [θ]5 and [θ]u represent the molar ellipticity values for the fully folded and fully unfolded species, respectively. […] was determined in the presence of 8M urea with a value of 1500 deg·cm^2·dmol^−1 to represent a totally random coil state (31). The melting temperature (Tm) was calculated as the temperature at which the α-helix was 50% denatured (([θ]t−[θ]u)/([θ]5−θ[θ]u)=0.5) and the values were taken as a measure of α-helix stability."}}, "data": [{"substance": "Ac-KWKSFLKTFKSAVKTVLHTALKAISS-NH2 [V681, reference compound]", "values": [{"measurement": "[θ]222 in benign conditions", "setting": "[1]; 100 mM KCl, 50 mM aq. PO4, pH 7", "result": "−12,900"}, {"measurement": "[θ]222 in 50% TFE", "setting": "[1]; 50% TFE", "result": "−27,300"}, {"measurement": "α-helical content", "setting": "[1]; 50% TFE", "result": 94, "unit": "%"}, {"measurement": "α-helical content", "setting": "[1]; benign conditions", "result": 45, "unit": "%"}, {"measurement": "change in hydrophobicity (RP-HPLC retention) relative to PVL", "setting": "[2]", "result": -0.35, "unit": "min"}, {"measurement": "geometric mean MIC", "setting": "[3]", "result": 6.3, "unit": "µg/mL"}, {"measurement": "transition temperature Tm (50% of α-helical structure denatured)", "setting": "[4]", "result": 79.3, "unit": "°C"}]}]}
